Experiment [1] deals with ^3 H-Norepinephrine release, rat hippocampus slices. Briefly: Ligand-stimulated ^3 H-norepinephrine release from rat hippocampus slices. Format: cell-based. The procedure: (§1) Measurement of ^3 H-dopamine release from rat striatal slices was performed according to the method of Sacaan et al. (J. Neurochem. 59:245 (1992)). Male Sprague-Dawley rats (250-300 g) were decapitated and the striata or olfactory tubercles dissected quickly on a cold glass surface. The tissue was chopped to a thickness of 300 μm with a McIlwain tissue chopper. After chopping again at right angles the tissue was dispersed and incubated for 10 min. at 37° C. in oxygenated Kreb's buffer. ^3 H-Dopamine (40 Ci/mmol, NEN- Dupont, Boston, Mass.) was added (50 nM) and the tissue was incubated for 30 min. in Kreb's buffer containing 10 μM pargyline and 0.5 mM ascorbic acid. Aliquots of the minced tissue were then transferred to chambers of a Brandel Superfusion system in which the tissue was supported on Whatman GF/B filter discs. The tissue was then superfused with buffer at a constant flow rate of 0.3 ml/min by means of a Brandel peristaltic pump. The perfusate was collected in plastic scintillation vials in 3-min fractions, and the radioactivity was estimated by scintillation spectrophotometry. The superfusate for the first 120 min was discarded. After two baseline fractions had been collected, the superfusion buffer was switched to fresh buffer with or without compound of interest. At the end of the experiment the filter and the tissue were removed, and the radiolabeled neurotransmitter content was estimated after extraction into scintillation fluid. The fractional efflux of radiolabeled neurotransmitter was estimated as the amount of radioactivity in the perfusate fraction relative to the total amount in the tissue.
(§2) Following essentially the same procedure as set forth above, the amount of ^3 H-norepinephrine released from rat hippocampus, thalamus and prefrontal cortex slices superfused with buffer containing (or lacking) compounds of interest was also measured.
(§3) Results of studies of the effects of an invention compound (as compared to the effect of nicotine) on the release of neurotransmitters from rat brain slices are presented in Table II. Results presented in Part A of the Table are expressed as the percent fractional release and results presented in Part B of the Table are expressed as a percentage, relative to nicotine response.

Experiment [2] deals with ^3 H-Norepinephrine release, rat thalamus slices. In words: Ligand-stimulated ^3 H-norepinephrine release from rat thalamus slices. Type of experiment: cell-based. The following applies: Nicotine concentration was 100 μM. As for the experimental part: as §1, §2, §3
Experiment [3] has as its system ^3 H-Dopamine release, rat striatal slices. Briefly: Ligand-stimulated ^3 H-dopamine release from rat striatal slices. Format: cell-based. The procedure:
as §1, §3

A further experiment deals with rats. In words: Locomotor activity assay. The following applies: Rattus norvegicus, sc, s.c.; for change in vivo at 1 mg/kg: 1 mg/kg salt. Format: in vivo, rat (male Sprague-Dawley). The procedure: This assay can be used to assess the primary effect of a compound on general motor activity. A decrease in locomotor activity is indicative of a possible sedative effect on the animal, whereas an increase in locomotor activity is indicative of a stimulant effect on the animal.
Locomotor activity of rats (male Sprague-Dawley (Harlan) weighing 200-250 gm) was measured for 2 hrs in photocell cages immediately after administration of the invention compound. Prior to the test day, the animals were placed in the activity cages for 3 hrs to familiarize them with the experimental environment. On the test day, the animals were placed in the photocell cages and then injected with compound 1.5 hrs later.
The photocell cages were standard rodent cages (30 cm×20 cm×40 cm) with four infrared beams crossing the long axis. The animals were under no motivational constraints and were free to move around. Movements from one infrared beam to another (ambulation) were called "crossover"; successive interruptions of the same beam (vertical and other movements such as grooming) were called "general activity."

In experiment [4] the test system is ^3 H-Dopamine release, rat olfactory tubercles. Briefly: Ligand-stimulated ^3 H-dopamine release from rat olfactory tubercles. To be noted: Nicotine concentration was 100 μM. Format: cell-based. As for the experimental part:
as §1, §3

In experiment [5] the test system is rats with unilateral 6-hydroxydopamine lesions of the nigrostriatal dopamine pathway. Format: in vivo, rat (male Sprague-Dawley). As for the experimental part: Selective lesions of the brain dopamine pathway using the neurotoxin 6-hydroxydopamine (6-OHDA) in rats can be used as an experimental approach to Parkinson's disease. Unilateral lesions of the nigrostriatal dopamine pathway induce a postural asymmetry which becomes manifested as rotation when the animals are activated by dopamine releasers or dopamine agonists. When amphetamine and other stimulant drugs that induce pre-synaptic release of dopamine from intact nerve terminals are administered, the rats rotate in a direction ipsilateral to the lesion. In contrast, when the rats are injected with post-synaptic dopamine receptor agonists, such as apomorphine, they turn in a contralateral direction, due to the development of supersensitive dopamine receptors in the lesioned side. Thus, the 6-OHDA model can be used to determine if a suspected dopaminergic agent is active, and to differentiate whether such action is pre- or post-synaptic.
The effects of invention compounds on rotational behavior in 6-hydroxydopamine denervated rats were evaluated using the procedure of Ungerstedt and Arbutknott, Brain Res. 24:485-493 (1970). Male Sprague-Dawley rats (Zivic Miller) weighing 170-200 gm were used in the 6-OHDA procedure. The ascending nigrostriatal dopamine pathway was lesioned by unilateral stereotaxic injection of 6-OHDA (8.0 μg) into one substantia nigra. All injections of 6-OHDA were preceded by desmethylimipramine (25 mg/kg i.p.) and pargyline (75 mg/kg i.p.) approximately 30 minutes prior to undergoing stereotaxic surgery for 6-OHDA infusion into the substantia nigra. After one week of recovery from surgery, the effectiveness of the lesions was verified by noting the response of the animals to apomorphine (0.2 mg/kg, s.c.). Only rats with a minimum rate of 80 contralateral turns per 30 minutes (a sign of more than 80-90% dopamine depletion after a 6-OHDA lesion) were used. Two weeks later, the selected rats were tested with invention and reference compounds using an automated rotometer system to record the number and direction of rotations. In order to distinguish spontaneous (non-specific)rotations from induced rotations (specific to the effect of the drug), each rat was used as its own control, employing the following procedure:
The rat was placed in the rotometer system for acclimatation for 15 minutes, the vehicle administered subcutaneously, the rat's rotations recorded for one hour, then test compound was administered s.c. and rotations again recorded for one hour. The number of ipsilateral rotations induced by vehicle was then compared to the number of ipsilateral rotations induced by test compound. Statistical analysis of the data was carried out using Student's t-test (paired).

The test system of experiment [6] is ^3 H-Norepinephrine release, rat prefrontal cortex slices. In words: Ligand-stimulated ^3 H-norepinephrine release from rat prefrontal cortex slices. To be noted: in vitro slices, 300 μM. Type of experiment: cell-based. The procedure: as §1, §2, §3

Like-named read-outs stand apart in the source and are kept apart here.

Take `CN1CCCC1c1cccnc1` (centres unmarked) [Nicotine, nicotine, reference compound]: the Emax at 300 µM in experiment [1] (Rattus norvegicus, nicotine 300 μM = 100, read-out: % of Nicotine Response, ^3 H-Norepinephrine, Hippocampus) came out at 100%. In addition, the “percent fractional release, ^3 H-Norepinephrine, Hippocampus” value in experiment [1] (in vitro slices, 300 μM) worked out at 6.19%. In experiment [2], the “percent fractional release, ^3 H-Norepinephrine, Thalamus” value was determined as 1.83%. Besides, the “percent fractional release, ^3 H-Dopamine, Striatum” value in experiment [3] (Nicotine concentration was 100 μM) worked out at 1.84%. The Emax at 10 µM in experiment [3] (Rattus norvegicus, nicotine itself at 10 μM (reference), read-out: % of Nicotine Response, ^3 H-Dopamine, Striatum) was found to be 100%. The change in vivo at 1 mg/kg with rats (1 h, 0-60 min, read-out: Ambulation (cross overs), percent of change from control) was 169%; with rats (1 h, 0-60 min, read-out: General Activity (beam breaks), percent of change from control), 27%; in the experiment on rats (2 h, 60-120 min, read-out: Ambulation (cross overs), percent of change from control), 163%; in the experiment on rats (2 h, 60-120 min, read-out: General Activity (beam breaks), percent of change from control) it was 71%. Moreover, in experiment [4], the “percent fractional release, ^3 H-Dopamine, Olfactory Tubercles” value was found to be 5.61%. The “Percent change from control (ipsilateral rotations)” value in experiment [5] (rat, in vivo) is on record as “+357”. In addition, the “percent fractional release, ^3 H-Norepinephrine, Prefrontal Cortex” value in experiment [6] worked out at 2.32%.
Take `CC(N)Cc1ccccc1` (centres unmarked) [Amphetamine, amphetamine, reference compound]: the change in vivo at 0.5 mg/kg in the experiment with rats (2 h, 60-120 min, 0.5 mg/kg salt, read-out: General Activity (beam breaks), percent of change from control) worked out at 456%. The “Percent change from control (ipsilateral rotations)” value in experiment [5] (1 mg/kg base, s.c., per one hour interval) is given as “+487%”.

These data come from patent US5677459A, “Methods for the preparation of modulators of acetylcholine receptors” (Sibia Neurosciences, Inc., priority 1995, dated 1997).
